Publication PMC4789100 (Environment international, 2009)
Several values for one entry are separate records, joined by “and”; a condition that tells them apart may be missing. Identical values can stand only once. Entries after “also recorded” stand apart in the source; their conditions may differ. Like-named read-outs stand apart in the source and are kept apart here.

Experiments:
[1] = target: T1, sheep placental cytosolic estrogen sulfotransferase (estradiol as substrate) (Ovis aries, UniProt A0ACI6NYW9); type: biochemical
T1 sequence (A0ACI6NYW9 1-296): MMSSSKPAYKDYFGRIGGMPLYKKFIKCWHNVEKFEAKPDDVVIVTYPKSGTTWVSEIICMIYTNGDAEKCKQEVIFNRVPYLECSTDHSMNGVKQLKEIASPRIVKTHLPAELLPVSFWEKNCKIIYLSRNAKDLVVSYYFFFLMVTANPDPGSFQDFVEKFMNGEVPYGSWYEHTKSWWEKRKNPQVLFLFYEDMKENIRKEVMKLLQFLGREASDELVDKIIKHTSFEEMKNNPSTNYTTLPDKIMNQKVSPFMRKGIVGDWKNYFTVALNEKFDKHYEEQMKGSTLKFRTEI

[2] = tested on: expressed human SULT1E1; conditions: cited from earlier work
[3] = tested on: sheep placental microsomes; assay: Triclosan glucuronidation in placental microsomes with 14C-UDPGA; type: in vitro ADME; conditions: 1 μM Triclosan; limit of detection <0.5 pmol/min/mg protein
[4] = Triclosan sulfonation in placental cytosol with 35S-PAPS; type: in vitro ADME, sheep; conditions: sheep, sheep placental cytosol, pH 7.4
[5] = tested on: sheep placental cytosol; assay: as above; type: in vitro ADME
[6] = cited from earlier work
[7] = estradiol as substrate, mean±S.D., n=3

Which IC50 ([1]; read-out: IC50 for inhibition of estradiol sulfonation, 1 nM estradiol) does the source give for `O=C(Nc1ccc(Cl)c(Cl)c1)Nc1ccc(Cl)cc1O` [2′OH-TCC, 2′-hydroxy-triclocarban] here?
Its IC50 is 310 ± 40 nM.

Which IC50 ([2]; ref Kester et al., 2000) does the source give for `Oc1c(Cl)cc(-c2ccc(Cl)c(Cl)c2)cc1Cl` [4′OH-CB79, 4-hydroxy-3,3′,4′,5-tetrachlorobiphenyl] here?
Its IC50 is 0.2 to 0.6 nM.

For `C[C@]12CC[C@@H]3c4ccc(O)cc4CC[C@H]3[C@@H]1CC[C@@H]2O` [Estradiol, 17-beta-estradiol], which “Ki, constant for partial inhibition of estradiol sulfotransferase activity by substrate” value [1, 7] is on record?
The value was 54.7 ± 25.3 nM.

What about the “Vmin, plateau low rate at high estradiol concentrations” value [1, 7] of the same compound?
The value was 12.1±7.7 pmol/min/mg protein.

And the “Estradiol concentration above which partial substrate inhibition is displayed” value ([2]; ref Zhang et al.,1998)?
The value was “above 20 nM”.

For `Oc1cc(Cl)ccc1Oc1ccc(Cl)cc1Cl` [Triclosan, 5-chloro-2(2,4-dichlorophenoxy)-phenol], which Glucuronidation [3] is on record?
Its Glucuronidation is “not a substrate for glucuronidation; also recorded: no detectable glucuronidation”.

What about the Km at 15 min [4] of the same compound?
Its Km at 15 min is 1.14 ± 0.18 µM.

What about the “Sulfonation apparent Vmax” value ([5]; Triclosan 0.1 to 10 μM, mean±S.D. of three individual samples) of the same compound?
The value was 160±26 pmol/min/mg protein.

What about the “Fraction of Triclosan that would be sulfonated” value ([5]; conditions of estradiol or estrone sulfonation assay with 1 nM Triclosan) of the same compound?
Its value is “less than 0.1%”.

And the “Reported mean concentration of total Triclosan” value (from here on “Reported mean concentration”) ([6]; Breast milk, Sweden, Control female, ref Allmyr et al., 2006b)?
The value was 0.02 ng/g and 0.07 nM.

What about the “Reported mean concentration” value ([6]; Breast milk, Sweden, Exposed female, ref Allmyr et al., 2006b) of the same compound?
Its value is 0.54 ng/g and 1.87 nM.

And the “Reported mean concentration” value ([6]; Serum, Australia, Female 2002, ref Allmyr et al., 2008)?
The value was 14 ng/g and 48.4 nM.

And the “Reported mean concentration” value ([6]; Serum, Australia, Female 2004, ref Allmyr et al., 2008)?
Its value is 7.2 ng/g and 24.9 nM.

And the “Reported mean concentration” value ([6]; Serum, Australia, Male 2004, ref Allmyr et al., 2008)?
Its value is 12 ng/g and 41.5 nM.

What about the “Reported mean concentration” value ([6]; Serum, Sweden, Control female, ref Allmyr et al., 2006b) of the same compound?
The value was 0.07 ng/g and 0.25 nM.

What about the “Reported mean concentration” value ([6]; Serum, Sweden, Exposed female, ref Allmyr et al., 2006b) of the same compound?
The value was 16 ng/g and 55.3 nM.

And the “Reported mean concentration” value ([6]; Urine, United States, Female, ref Calafat et al., 2008)?
Its value is 10.6 μg/L and 36.6 nM.

And the “Reported mean concentration” value ([6]; Urine, United States, Male, ref Calafat et al., 2008)?
Its value is 16.2 μg/L and 56.0 nM.
